# Patent US11485758B2, “Bi-terminal pegylated integrin-binding peptides and methods of use thereof” (The Regents of the University of California, priority 2014, dated 2022)
# Where two headings read alike, the source gives them in different places. Where a SMILES comes first, the peptide text is derived from it. Where no end group is shown, it is not given here. The star is where a group is joined. Benzoyl(4-F) = O=C(c1ccc(F)cc1)*
# What was measured:
# [1] = test system: BxPC-3 tumors (endogenous αvβ6-expression); settings: 1 h; blocking with 30 mg/kg FBA-PEG28-A20FMDV2 at T=−10 min
# Procedure: (PBS) or 37° C. (serum), followed by analysis on radio HPLC. Data are expressed as % probe remaining intact in sample. […] Tumor models—DX3puroβ6/DX3puro: Human melanoma cell line. DX3puroβ6 has been stably transfected to express integrin αvβ6. DX3puro is negative control cell line. […] BxPC-3: Pancreatic cell line with endogenous αvβ6-expression. MIA PaCa-2: Pancreatic cell line, no αvβ6-expression.
# [2] = test system: integrin αvβ6-expressing DX3puroβ6 cell line; test: Cell binding and internalization of radiotracers, DX3puroβ6 cells; assay type: cell-based, human; settings: for Affinity and selectivity for the αvβ6(+)-expressing cell line DX3puroβ6, in words: cell binding vs DX3puro control
# [3] = test system: αvβ6-negative DX3puro control cell line; test: Cell binding and internalization of radiotracers, DX3puro control cells; assay type: cell-based, human
# [4] = test system: BxPC-3 cells (endogenous αvβ6(+)-expression); settings: 60 min incubation
# αvβ6 integrin = target: T1, αvβ6 integrin (Homo sapiens, UniProt P06756+P18564); test: Competitive binding ELISA of [19F]FBA peptides for integrin αvβ6
# T1 construct: purchased R&D systems (Minneapolis, Minn.)
# Procedure: Affinity of each peptide was assessed ELISA on Nunc Maxisorp Flat-bottom 96 well plates (affymetrix ebioscience, San Diego, Calif.). Integrin alpha V antibody P2W7 was purchased from Novus Biologicals (Littleton, Colo.). Bovine serum albumin (BSA) was purchased from VWR (Randor, Pa.) and TMB one solution was purchased from Promega (Madison, Wis.). αvβ6 integrin was purchased from R&D systems (Minneapolis, Minn.). Protein biotinylation kit was purchased from Amersham plc (Amersham, UK) while competing natural ligand fibronectin was purchased from Invitrogen (Carlsbad, Calif.). Affinity was measured in absorbance units by the Thermo Multiscan Plate reader with associated Ascent Software (Thermofisher, Waltham, Mass.).
# The peptides were allowed to compete for 1 h with biotinylated fibronectin, a natural ligand for αvβ6; or biotinylated vitronectin, when competing against αvβ3. Briefly, a 96-well plate was coated with 50 μL/well of 5 μg/mL P2W7 in phosphate buffered saline (PBS) at 37° C. for 1 h. The plate was washed three times with PBS followed by treatment with PBS containing 5% bovine serum albumin (BSA; fraction V; w/v) and 1% Tween 20 (v/v) at 4° C. for 16 h to block nonspecific binding. The plate was washed with PBS and coated with 50 μL/well integrin in wash buffer (WaB) for 1 h and then washed three times with WaB. WaB consisted of a solution of 2 mmol/L Tris buffer (pH 7.6), 150 mmol/L sodium chloride, 1 mmol/L manganese chloride, and 0.1% Tween 20 (v/v) in deionized water. Triplicate wells were coated with 50 μL/well of a mixture of equal volumes of biotinylated fibronectin (BtFn) for αvβ6, or biotinylated vitronectin (BtVn) for αvβ3, in conjugate buffer, consisting of 1% BSA (fraction V; w/v) in WaB, and a serial dilution of peptide stock (2 mmol/L; 10% DMSO (v/v) in water) from 1 μM to 1 pM. Wells containing no peptide, no peptide and no antibody, or no peptide and no ligand served as controls. The plate was incubated for 1 h at room temperature and washed three times with WaB before ExtrAvidin-horseradish peroxidase conjugate was added (50 μL/well, 1:1,000 dilution in conjugate buffer) at room temperature for 1 h. After washing with WaB, bound BtFn or BtVn was detected by addition of TMB (50 μL/well) and incubation for 10 to 15 min. The reaction was terminated by adding 50 μL/well […] sulfuric acid and absorbance was measured at 450 nm (yellow color of acidified oxidized TMB, indicating fibronectin binding). Calculations of IC50 values are based on data analysis with Prism software (GraphPad Software).
# T1 sequence (P06756 31-889 limits assumed): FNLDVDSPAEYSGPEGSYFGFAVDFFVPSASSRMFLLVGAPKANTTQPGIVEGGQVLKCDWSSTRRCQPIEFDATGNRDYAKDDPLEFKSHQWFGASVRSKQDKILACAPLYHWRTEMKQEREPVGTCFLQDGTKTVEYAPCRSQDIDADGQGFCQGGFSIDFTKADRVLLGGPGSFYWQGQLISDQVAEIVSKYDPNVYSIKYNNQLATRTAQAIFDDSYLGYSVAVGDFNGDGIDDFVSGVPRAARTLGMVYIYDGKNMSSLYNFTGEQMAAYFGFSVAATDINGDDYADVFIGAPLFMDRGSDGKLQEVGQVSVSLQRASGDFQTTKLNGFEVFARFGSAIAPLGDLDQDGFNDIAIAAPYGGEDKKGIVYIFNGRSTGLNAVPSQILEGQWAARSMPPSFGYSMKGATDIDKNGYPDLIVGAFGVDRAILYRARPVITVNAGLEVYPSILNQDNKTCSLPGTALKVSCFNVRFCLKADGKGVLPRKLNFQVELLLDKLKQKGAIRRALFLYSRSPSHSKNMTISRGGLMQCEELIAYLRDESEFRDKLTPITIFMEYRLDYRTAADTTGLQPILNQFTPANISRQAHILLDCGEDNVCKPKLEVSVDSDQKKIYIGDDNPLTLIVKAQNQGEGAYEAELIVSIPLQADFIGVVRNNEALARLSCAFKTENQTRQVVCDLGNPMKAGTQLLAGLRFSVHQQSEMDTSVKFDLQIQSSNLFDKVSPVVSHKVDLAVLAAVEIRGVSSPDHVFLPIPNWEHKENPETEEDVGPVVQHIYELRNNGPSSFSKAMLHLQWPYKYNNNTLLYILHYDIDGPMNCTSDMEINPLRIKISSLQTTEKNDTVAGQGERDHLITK
# T1 sequence (P06756 891-992 limits assumed): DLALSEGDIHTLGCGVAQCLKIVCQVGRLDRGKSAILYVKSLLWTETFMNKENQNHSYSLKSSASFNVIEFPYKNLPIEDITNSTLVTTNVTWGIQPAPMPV
# T1 sequence (P18564 22-707 limits assumed): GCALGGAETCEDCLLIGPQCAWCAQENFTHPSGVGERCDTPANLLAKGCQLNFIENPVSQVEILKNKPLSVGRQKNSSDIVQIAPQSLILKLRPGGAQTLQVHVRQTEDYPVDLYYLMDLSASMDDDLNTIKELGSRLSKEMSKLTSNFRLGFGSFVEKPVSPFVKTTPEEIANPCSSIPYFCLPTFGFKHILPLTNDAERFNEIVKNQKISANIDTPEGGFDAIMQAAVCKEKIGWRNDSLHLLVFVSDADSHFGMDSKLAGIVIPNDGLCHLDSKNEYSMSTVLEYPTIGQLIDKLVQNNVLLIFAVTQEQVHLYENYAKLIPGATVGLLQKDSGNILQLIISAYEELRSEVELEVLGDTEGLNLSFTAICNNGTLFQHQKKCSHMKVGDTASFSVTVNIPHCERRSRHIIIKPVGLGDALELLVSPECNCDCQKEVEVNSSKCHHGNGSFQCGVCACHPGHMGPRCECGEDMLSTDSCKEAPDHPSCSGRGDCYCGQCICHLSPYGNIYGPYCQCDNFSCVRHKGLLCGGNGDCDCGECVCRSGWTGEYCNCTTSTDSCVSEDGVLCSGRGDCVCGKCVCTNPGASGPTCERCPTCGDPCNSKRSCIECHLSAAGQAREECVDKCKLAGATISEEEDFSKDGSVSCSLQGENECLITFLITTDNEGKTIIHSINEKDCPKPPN
compound,measurement,setting,value
18F-FBA-PEG28-A20FMDV2-PEG28 [compound 5],Reduction of BxPC-3 tumor uptake vs unblocked,[1],92%
same,Binding to DX3puroβ6 cells (fraction of total radioactivity),[2]; 60 min incubation,51.0±0.9%
same,Internalization into DX3puroβ6 cells (of total radioactivity),[2]; 60 min incubation,33.5±1.8%
same,Binding to DX3puro control cells,[3]; 60 min incubation,3.5±0.2%
same,Internalization into DX3puro control cells,[3]; 60 min incubation,0.9±0.1%
same,Binding to BxPC-3 cells (fraction of total radioactivity),[4],37.2±1.9%
same,Internalization into BxPC-3 cells (of total radioactivity),[4],28.4±0.9%
CC(C)C[C@H](NC(=O)[C@H](CC(=O)O)NC(=O)[C@H](CO)NC(=O)[C@@H](N)CCCNC(=N)N)C(=O)N[C@H](C(=O)N1CCC[C@H]1C(=O)N[C@@H](CC(C)C)C(=O)N[C@@H](Cc1ccccc1)C(N)=O)[C@@H](C)O (H-RSDLTPLF-NH2),IC50,αvβ6 integrin,7 nM
same,Selectivity for αvβ6 over αvβ3,αvβ6 integrin,100 times
CC(C)C[C@H](NC(=O)[C@H](CC(=O)O)NC(=O)[C@H](CO)NC(=O)[C@H](CCCNC(=N)N)NC(=O)c1ccc(F)cc1)C(=O)N[C@H](C(=O)N1CCC[C@H]1C(=O)N[C@@H](CC(C)C)C(=O)N[C@@H](Cc1ccccc1)C(N)=O)[C@@H](C)O ({Benzoyl(4-F)}-RSDLTPLF-NH2),IC50,αvβ6 integrin,7 nM
CC(C)C[C@H](NC(=O)[C@H](CC(=O)O)NC(=O)CNC(=O)[C@H](CCCNC(=N)N)NC(=O)[C@H](CC(C)C)NC(=O)[C@H](CC(N)=O)NC(=O)[C@@H]1CCCN1C(=O)[C@@H](NC(=O)[C@H](C)NC(=O)[C@H](CC(N)=O)NC(=O)CCOCCOCCOCCOCCOCCOCCOCCOCCOCCOCCOCCOCCOCCOCCOCCOCCOCCOCCOCCOCCOCCOCCOCCOCCOCCOCCOCCOCCNC(=O)c1ccc(F)cc1)C(C)C)C(=O)N[C@@H](CCC(N)=O)C(=O)N[C@H](C(=O)N[C@@H](CC(C)C)C(=O)N[C@@H](C)C(=O)N[C@@H](CCC(N)=O)C(=O)N[C@@H](CCCCN)C(=O)N[C@H](C(=O)N[C@@H](C)C(=O)N[C@@H](CCCNC(=N)N)C(=O)N[C@H](C(=O)NCCOCCOCCOCCOCCOCCOCCOCCOCCOCCOCCOCCOCCOCCOCCOCCOCCOCCOCCOCCOCCOCCOCCOCCOCCOCCOCCOCCOCCC(N)=O)[C@@H](C)O)C(C)C)C(C)C [PEGylated A20FMDV2 not bearing K(IPA)E],Binding to DX3puroβ6 cells (fraction of total radioactivity),[2]; 60 min incubation,52%
same,"Internalized share of bound radioactivity, DX3puroβ6 cells",[2]; of bound radioactivity,44%
same,"Binding and internalization in DX3puro control, in words",[3],low
D(KLAKLAK)2-GG-PEG28-A20FMDV2-K,"Affinity and selectivity for the αvβ6(+)-expressing cell line DX3puroβ6, in words",[2],"does not affect its affinity, specificity, and internalization-potential"
PEG28-A20FMDV2(K16R)-PEG28,Internalization in αvβ6 cells,"[2]; 1 h, basis not given",> 50%
same,Binding to DX3puroβ6 cells (fraction of total radioactivity),[2]; 60 min incubation,> 70%
PEG28-A20FMDV2-GG-D(KLAKLAK)2-K,"Affinity and selectivity for the αvβ6(+)-expressing cell line DX3puroβ6, in words",[2],"does not affect its affinity, specificity, and internalization-potential"
"c(RSDLTPLFE)K([^19F]FBA)-NH2 (RSDLTPLFEK((19F)FBA)-NH2; bridge (positions not given here); also: residues 1-9 cyclized, mode not given here)",IC50,"αvβ6 integrin; ELISA, calculated by PRISM, read-out: IC50 against αvβ6",> 300 nM
